Assay results reported in ChEMBL document CHEMBL1136161, “Novel, potent phenethylamide inhibitors of the hepatitis C virus (HCV) NS3 protease: probing the role of P2 aryloxyprolines with hybrid structures” (Bioorg Med Chem Lett, 2003).
Where “and” joins values, the source holds several entries; their conditions need not be identical. Equal values may be shown once.

molecular target: T1, NS3 (Hepatitis C virus, UniProt A3EZJ3); assay: Inhibitory concentration against hepatitis C virus (HCV) NS3 protease; set-up: species or system Hepacivirus hominis
T1 sequence (A3EZJ3 whole entry): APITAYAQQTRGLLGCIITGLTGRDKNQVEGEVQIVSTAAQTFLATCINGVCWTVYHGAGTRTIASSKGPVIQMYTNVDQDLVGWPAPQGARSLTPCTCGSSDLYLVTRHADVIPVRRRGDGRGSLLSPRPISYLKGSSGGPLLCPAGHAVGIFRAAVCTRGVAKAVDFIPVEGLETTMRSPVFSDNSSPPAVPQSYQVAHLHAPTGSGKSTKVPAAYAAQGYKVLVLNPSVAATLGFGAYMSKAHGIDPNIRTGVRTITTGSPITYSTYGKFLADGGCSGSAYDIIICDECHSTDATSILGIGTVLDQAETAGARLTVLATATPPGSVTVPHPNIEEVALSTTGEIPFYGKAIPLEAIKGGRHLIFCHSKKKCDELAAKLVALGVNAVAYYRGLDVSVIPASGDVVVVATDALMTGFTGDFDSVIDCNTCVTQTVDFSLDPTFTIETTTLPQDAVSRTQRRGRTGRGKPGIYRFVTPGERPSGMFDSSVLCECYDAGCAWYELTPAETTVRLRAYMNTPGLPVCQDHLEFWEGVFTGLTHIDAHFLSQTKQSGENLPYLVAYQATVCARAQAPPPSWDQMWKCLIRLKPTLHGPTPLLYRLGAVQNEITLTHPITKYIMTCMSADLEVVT

Compound	IC50
COc1ccc2c(O[C@@H]3C[C@@H](C(=O)NC(CC(F)F)C(=O)NCCc4c(F)cc(C(=O)O)cc4F)N(C(C)=O)C3)cc(-c3ccccc3)nc2c1 (stereo not given in full)	38000 nM
COc1ccc2c(O[C@@H]3C[C@@H](C(=O)NC(CC(F)F)C(=O)NCCc4ccc(C(=O)O)cc4)N(C(=O)[C@@H](NC(=O)OCC(C)C)C(C)C)C3)cc(-c3ccccc3)nc2c1 (stereo not given in full)	400 nM
COc1ccc2c(O[C@@H]3CC(C(=O)NC(CC(F)F)C(=O)O)N(C(=O)[C@@H](NC(=O)OC(C)(C)C)C(C)(C)C)C3)cc(-c3ccccc3)nc2c1 (stereo not given in full)	180 nM
C=CC1C[C@]1(NC(=O)C1C[C@@H](Oc2ccnc3ccccc23)CN1C(=O)[C@@H](NC(=O)OC(C)(C)C)C(C)(C)C)C(=O)O (stereo not given in full)	330 nM and < 500 nM
COc1ccc2c(O[C@@H]3C[C@@H](C(=O)NC(CC(F)F)C(=O)NCCc4c(F)cc(C(=O)O)cc4F)N(C(=O)[C@@H](NC(=O)OC(C)(C)C)C(C)(C)C)C3)cc(-c3ccccc3)nc2c1 (stereo not given in full)	54 nM
C=CC1C[C@]1(NC(=O)C1C[C@@H](Oc2cc(-c3ccccc3)nc3cc(OC)ccc23)CN1C(=O)[C@@H](NC(=O)OC(C)(C)C)C(C)(C)C)C(=O)O (stereo not given in full)	25 nM
COc1ccc2c(O[C@@H]3C[C@@H](C(=O)NC(CC(F)F)C(=O)NCCc4ccc(C(=O)O)cc4)N(C(=O)[C@@H](O)C(C)C)C3)cc(-c3ccccc3)nc2c1 (stereo not given in full)	11000 nM

molecular target: T1, NS3; assay: Inhibitory concentration against hepatitis C virus (HCV) NS3 protease; Not active at >> 100 uM; set-up: species or system Hepacivirus hominis

Compound	IC50
COc1ccc2c(O[C@@H]3C[C@@H](C(=O)NC(CC(F)F)C(=O)NCCc4ccc(C(=O)O)cc4)N(C(=O)C(C)(C)C)C3)cc(-c3ccccc3)nc2c1 (stereo not given in full)	Not Active

molecular target: T1, NS3; assay: Inhibitory concentration against hepatitis C virus (HCV) NS3 protease; Not active; set-up: species or system Hepacivirus hominis

Compound	IC50
C=CC1CC1(NC(=O)C1C[C@@H](Oc2ccnc3ccccc23)CN1C(=O)[C@@H](NC(=O)OC(C)(C)C)C(C)(C)C)C(=O)NCCc1ccc(C(=O)O)cc1 (stereo not given in full)	Not Active
C=CC1C[C@@]1(NC(=O)C1C[C@@H](Oc2ccnc3ccccc23)CN1C(=O)[C@@H](NC(=O)OC(C)(C)C)C(C)(C)C)C(=O)O (stereo not given in full)	Not Active
